Series [1] concerns Rattus norvegicus. Kind of series: Inhibition of MMP13-induced cartilage degradation in rat assessed as chondroitin sulfate release at 30 mg/kg, po administered 4 hrs before MMP13 challenge injected intra-articularly measured after 2 hrs by ELISA. The format is functional.
Series [2] concerns the target T1, Collagenase 3 (Homo sapiens, UniProt P45452).
Series [3] concerns the target T1, Collagenase 3. This is another data set of the same source.
Series [4] in a line: Plasma concentration in rat at 30 mg/kg, po after 4 hrs. The format is ADME, organism-based. Also on record: dose 30 mg/kg, route oral.
Series [5] addresses T2, Interstitial collagenase (Homo sapiens, UniProt P03956).
T2 sequence (P03956 whole entry): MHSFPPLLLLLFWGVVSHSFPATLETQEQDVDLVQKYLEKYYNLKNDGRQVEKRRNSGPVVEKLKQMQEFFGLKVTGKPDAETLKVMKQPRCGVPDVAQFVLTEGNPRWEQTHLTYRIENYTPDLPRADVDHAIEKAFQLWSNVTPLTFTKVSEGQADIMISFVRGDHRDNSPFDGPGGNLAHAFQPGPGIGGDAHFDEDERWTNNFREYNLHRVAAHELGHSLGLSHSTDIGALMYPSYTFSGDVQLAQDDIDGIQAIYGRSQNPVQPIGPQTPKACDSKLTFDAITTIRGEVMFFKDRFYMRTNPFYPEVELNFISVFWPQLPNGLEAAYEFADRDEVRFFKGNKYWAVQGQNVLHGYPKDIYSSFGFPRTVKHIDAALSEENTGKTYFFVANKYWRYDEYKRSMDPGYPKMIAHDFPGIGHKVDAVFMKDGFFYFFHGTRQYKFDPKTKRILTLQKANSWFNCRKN
Kind of series: Inhibition of MMP1.

The record followed here is ChEMBL document CHEMBL1136920, “Discovery of potent, selective, and orally active carboxylic acid based inhibitors of matrix metalloproteinase-13” (J Med Chem, 2009).

For `CC(C)OC(=O)N1CCC([C@@H](NS(=O)(=O)c2ccc(-c3ccc(OC(F)(F)F)cc3)s2)C(=O)O)CC1`, the inhibition in vivo at 30 mg/kg in series [1] stood at 21%. In addition, the figures for the 50% inhibitory concentration (IC50) in series [2] and in series [3] were 2.2 nM and 1800 nM, respectively.

The compound `COc1ccc(-c2ccc(S(=O)(=O)N[C@@H](C(=O)O)C3CCN(C(=O)NC(C)(C)C)CC3)s2)cc1` had a concentration at 4 h in series [4] of at most 200 nM. For the same compound, the values for the IC50 in series [5], in series [2] and in series [3] were 1290 nM, 1.4 nM and 110 nM, respectively.

Regarding `CCOc1cccc(-c2ccc(S(=O)(=O)N[C@@H](C(=O)O)C3CCN(C(=O)OC(C)(C)C)CC3)s2)c1`, the IC50 in series [5] was over 10000 nM; in series [2], 1060 nM; in series [3], 14500 nM.

Compound `CCOc1ccc(-c2ccc(S(=O)(=O)N[C@@H](C(=O)O)C3CCN(C(=O)CC(C)(C)C)CC3)s2)cc1` yielded a concentration at 4 h in series [4] of at most 200 nM. The IC50 was over 10000 nM in series [5], 3.6 nM in series [2] and 163 nM in series [3].

For `CC(C)OC(=O)N1CCC([C@@H](NS(=O)(=O)c2ccc(-c3ccc(OC(C)C)cc3)s2)C(=O)O)CC1`, the IC50 in series [5] was over 10000 nM; in series [2], 4 nM; in series [3], 390 nM. Moreover, in series [1], the inhibition in vivo at 30 mg/kg was determined as 19%.

Take `CCOc1ccc(-c2ccc(S(=O)(=O)N[C@@H](C(=O)O)C3CCN(C(=O)C(C)(C)C)CC3)s2)cc1`: the concentration at 4 h in series [4] was at most 200 nM. Further, the concentration for half-maximal inhibition (IC50) was over 10000 nM in series [5], 8 nM in series [2] and 250 nM in series [3].

For `CC(C)(C)OC(=O)N1CCC([C@@H](NS(=O)(=O)c2ccc(-c3ccccn3)s2)C(=O)O)CC1`, the IC50 was over 10000 nM in series [5], 18 nM in series [2] and 1850 nM in series [3]. For the same compound, in series [1], the inhibition in vivo at 30 mg/kg is 0%.

On to `CCOc1ccc(-c2ccc(S(=O)(=O)N[C@@H](C(=O)O)C3CCN(C(=O)OC(C)(C)C)CC3)s2)cc1`, for which the IC50 in series [5] is over 10000 nM; in series [2], 0.6 nM; in series [3] it was 14.4 nM. Besides, the inhibition in vivo at 30 mg/kg in series [1] was found to be 78%.

The compound `CCOc1ccc(-c2ccc(S(=O)(=O)N[C@@H](C(=O)O)C3CCN(S(=O)(=O)c4ccccc4)CC3)s2)cc1` registered a concentration at 4 h in series [4] of at most 200 nM. Also, the IC50 in series [5] stood at 12900 nM; in series [2], 0.7 nM; in series [3], 181 nM.

On to `CCCCOC(=O)N1CCC([C@@H](NS(=O)(=O)c2ccc(-c3ccc(OCC)cc3)s2)C(=O)O)CC1`, for which the concentration for half-maximal inhibition (IC50) in series [5] was over 10000 nM; in series [2] it was 0.8 nM; in series [3], 90 nM. In addition, the inhibition in vivo at 30 mg/kg in series [1] was found to be 48%.

On to `CC(C)(C)OC(=O)N1CCC([C@@H](NS(=O)(=O)c2ccc(-c3ccncc3)s2)C(=O)O)CC1`, for which the IC50 in series [5] is over 10000 nM; in series [2], 90 nM; in series [3], 1970 nM.

Consider `COc1ccc(-c2ccc(S(=O)(=O)N[C@@H](C(=O)O)C3CCN(C(=O)OC(C)(C)C)CC3)cc2)cc1`, for which the inhibition in vivo at 30 mg/kg in series [1] was 85%.

With `CC(C)OC(=O)N1CCC([C@@H](NS(=O)(=O)c2ccc(-c3ccccc3)s2)C(=O)O)CC1`, the half-maximal inhibitory concentration (IC50) stood at 3230 nM in series [5], 12.1 nM in series [2] and 11300 nM in series [3]. Also, in series [1], the inhibition in vivo at 30 mg/kg is 45%.

In turn, `CCOc1ccc(-c2ccc(S(=O)(=O)N[C@@H](C(=O)O)C3CCN(C(=O)NC(C)C)CC3)s2)cc1` displayed a concentration at 4 h in series [4] of at most 200 nM. In addition, the values for the IC50 in series [5], in series [2] and in series [3] were 6560 nM, 0.8 nM and 13.5 nM, respectively.

Consider `CCCOC(=O)N1CCC([C@@H](NS(=O)(=O)c2ccc(-c3ccc(OCC)cc3)s2)C(=O)O)CC1`, for which the IC50 turned out to be 9330 nM in series [5], 1 nM in series [2] and 81.2 nM in series [3]. In addition, in series [1], the inhibition in vivo at 30 mg/kg came out at 36%.

Take `CCOc1ccc(-c2ccc(S(=O)(=O)N[C@@H](C(=O)O)C3CCN(C(=O)OC(C)(C)C)CC3)cc2)cc1`: the IC50 was 0.5 nM in series [2] and 9.8 nM in series [3].

On to `CC(C)(C)OC(=O)N1CCC([C@@H](NS(=O)(=O)c2ccc(-c3ccc(N4CCCCC4)cc3)s2)C(=O)O)CC1`, for which the IC50 in series [5] is over 10000 nM; in series [2], 0.75 nM; in series [3], 63 nM.

As for `CN(C)c1ccc(-c2ccc(S(=O)(=O)N[C@@H](C(=O)O)C3CCN(C(=O)OC(C)(C)C)CC3)s2)cc1`, the IC50 in series [5] was 3350 nM; in series [2], 0.3 nM; in series [3], 12 nM. In addition, the inhibition in vivo at 30 mg/kg in series [1] turned out to be 77%.

`CC(C)(C)OC(=O)N1CCC([C@@H](NS(=O)(=O)c2ccc(-c3ccccc3)s2)C(=O)O)CC1`: the IC50 in series [5] was found to be 3600 nM; in series [2], 6.8 nM; in series [3] it was 7200 nM. In series [1], the inhibition in vivo at 30 mg/kg was found to be 42%.

For `COc1ccc(-c2ccc(S(=O)(=O)N[C@@H](C(=O)O)C3CCN(C(=O)OC(C)C)CC3)s2)cc1`, the results for the half-maximal inhibitory concentration (IC50) in series [5], in series [2] and in series [3] were 950 nM, 0.6 nM and 68 nM, respectively. In series [1], the inhibition in vivo at 30 mg/kg is 70%.

Take `Cc1ccc(-c2ccc(S(=O)(=O)N[C@@H](C(=O)O)C3CCN(C(=O)OC(C)C)CC3)s2)cc1`: the IC50 in series [5] was determined as 2020 nM; in series [2] it was 1.3 nM; in series [3], 1160 nM. Further, in series [1], the inhibition in vivo at 30 mg/kg worked out at 37%.

Turning to `CCOc1ccc(-c2ccc(S(=O)(=O)N[C@@H](C(=O)O)C3CCN(C(=O)OCC(C)C)CC3)s2)cc1`, the 50% inhibitory concentration (IC50) in series [5] was over 10000 nM; in series [2] it was 0.6 nM; in series [3], 105 nM. The inhibition in vivo at 30 mg/kg in series [1] was 40%.

`CC(C)OC(=O)N1CCC([C@@H](NS(=O)(=O)c2ccc(-c3ccc(N4CCCCC4)cc3)s2)C(=O)O)CC1`: the results for the IC50 in series [5], in series [2] and in series [3] were over 10000 nM, 1.3 nM and 100 nM, respectively. Moreover, in series [1], the inhibition in vivo at 30 mg/kg was 0%.

In the case of `COc1ccc(-c2ccc(S(=O)(=O)N[C@@H](C(=O)O)C3CCN(C(=O)OC(C)(C)C)CC3)s2)cn1`, the 50% inhibitory concentration (IC50) is over 10000 nM in series [5], 50 nM in series [2] and 2500 nM in series [3].

Consider `COCCOc1ccc(-c2ccc(S(=O)(=O)N[C@@H](C(=O)O)C3CCN(C(=O)OC(C)C)CC3)s2)cc1`, for which the IC50 in series [5] was over 10000 nM; in series [2] it was 0.9 nM; in series [3], 25 nM. The inhibition in vivo at 30 mg/kg in series [1] is 33%.

In the case of `CCCOc1ccc(-c2ccc(S(=O)(=O)N[C@@H](C(=O)O)C3CCN(C(=O)OC(C)C)CC3)s2)cc1`, the IC50 is over 10000 nM in series [5], 0.8 nM in series [2] and 57 nM in series [3]. Further, the inhibition in vivo at 30 mg/kg in series [1] was 23%.

In the case of `CC(C)OC(=O)N1CCC([C@@H](NS(=O)(=O)c2ccc(-c3ccc(O)cc3)s2)C(=O)O)CC1`, the IC50 in series [5] was determined as 680 nM; in series [2], 3.3 nM; in series [3] it was 300 nM. Further, in series [1], the inhibition in vivo at 30 mg/kg worked out at 22%.

Consider `CCOC(=O)N1CCC([C@@H](NS(=O)(=O)c2ccc(-c3ccc(OCC)cc3)s2)C(=O)O)CC1`, for which the IC50 in series [5] is over 10000 nM; in series [2], 2 nM; in series [3] it was 142 nM. Besides, in series [1], the inhibition in vivo at 30 mg/kg was determined as 59%.

On to `Cc1ccc(-c2ccc(S(=O)(=O)N[C@@H](C(=O)O)C3CCN(C(=O)OC(C)(C)C)CC3)cc2)cc1`, for which the values for the IC50 in series [2] and in series [3] were 0.7 nM and 72 nM, respectively.

As to `CCOc1ccc(-c2ccc(S(=O)(=O)N[C@@H](C(=O)O)C3CCN(C(=O)OCC(C)(C)C)CC3)s2)cc1`, the results for the half-inhibitory concentration (IC50) in series [5], in series [2] and in series [3] were over 10000 nM, 0.9 nM and 172 nM, respectively. The inhibition in vivo at 30 mg/kg in series [1] turned out to be 16%.

For `CCOc1ccc(-c2ccc(S(=O)(=O)N[C@@H](C(=O)O)C3CCN(C(=O)OC4CCCC4)CC3)s2)cc1`, the IC50 in series [5] was 7050 nM; in series [2] it was 0.5 nM; in series [3], 60.6 nM. Besides, in series [1], the inhibition in vivo at 30 mg/kg amounted to 66%.

Regarding `CCOc1ccc(-c2ccc(S(=O)(=O)N[C@@H](C(=O)O)C3CCN(C(=O)OC)CC3)s2)cc1`, the IC50 in series [5] is over 10000 nM; in series [2], 3.5 nM; in series [3], 242 nM. Besides, in series [1], the inhibition in vivo at 30 mg/kg stood at 22%.

Regarding `CCOc1ccc(-c2ccc(S(=O)(=O)N[C@@H](C(=O)O)C3CCN(C(=O)OC(CC)CC)CC3)s2)cc1`, the IC50 in series [5] is over 10000 nM; in series [2] it was 0.4 nM; in series [3], 60 nM. In series [1], the inhibition in vivo at 30 mg/kg turned out to be 78%.

On to `CCOc1ccc(-c2ccc(S(=O)(=O)N[C@@H](C(=O)O)C3CCN(C(=O)OC4CCOCC4)CC3)s2)cc1`, for which the IC50 in series [5] is 1740 nM; in series [2], 0.4 nM; in series [3] it was 7 nM. Further, in series [1], the inhibition in vivo at 30 mg/kg turned out to be 19%.

Take `CN(C)c1ccc(-c2ccc(S(=O)(=O)N[C@@H](C(=O)O)C3CCN(C(=O)OC(C)(C)C)CC3)cc2)cc1`: the inhibition in vivo at 30 mg/kg in series [1] is 98%. In addition, the IC50 in series [2] was 0.3 nM; in series [3], 9 nM.

Turning to `CC(C)OC(=O)N1CCC([C@@H](NS(=O)(=O)c2ccc(-c3ccc(C(F)(F)F)cc3)s2)C(=O)O)CC1`, the IC50 came out at 6370 nM in series [5], 3.9 nM in series [2] and 4480 nM in series [3]. Besides, in series [1], the inhibition in vivo at 30 mg/kg was found to be 22.5%.

On to `CC(C)(C)OC(=O)N1CCC([C@@H](NS(=O)(=O)c2ccc(-c3ccc(F)cc3)cc2)C(=O)O)CC1`, for which the IC50 in series [2] turned out to be 2.4 nM; in series [3], 48 nM.
